According to publication PMC8778264 (Nanomaterials, 2022):

Experiments:
Assay type in all cases: cell-based
[1] = system: CRL-1739 cells; test: In vitro cytotoxicity (MTT assay); conditions: 48 h treatment
Experimental: The cell line was cultured in DMEM supported with 10% fetal bovine serum, 0.5 mg/mL glutamine/penicillin streptomycin at 37 °C and 5% CO2. […] Ninety-six well flat-bottom plates and […] DMEM were used for the seeding procedure. […] Then, 100 μL of MTT solution (5 mg/mL) was put into each well and incubated at 37 °C. The culture medium was removed. Then, 200 μL of dimethysulfoxide was added to obtain the dissolution of the MTT formazan crystals. The absorbance was read at 570 nm using a microplate reader.

[2] = system: CRL-1739 cells; test: Cellular uptake and cell apoptosis analysis by flow cytometry (Annexin V-FITC / propidium iodide); conditions: 0.05 and 2 mg/mL, 24 h
Experimental: (§1) The control group comprised untreated cells and fresh culture medium without test compounds. CRL-1739 cells were seeded to a 5 × 10^4 cell density in 24-well plates. […] After the administration of formulations, cells were washed with PBS three times. The cells were trypsinized and suspended in fresh PBS with 10% fetal bovine serum.
The suspended formulations were incubated with 5 μL of Annexin V-FITC and 5 μL of propidium iodide for 15 min at room temperature in the dark. The cell suspensions were analyzed by using Guava easy Cyte in terms of cellular uptake.

[3] = system: CRL-1739 cells; test: Fluorescence microscopy (Hoechst 33342)
Experimental: as §1
After treatment with the formulations, CRL-1739 cells were fixed and stained with Hoechst 33342 (blue). The cellular uptake of formulations was performed with a Nikon eclipse fluorescence microscope (Nikon, Japan) at a magnification of 1000×. The stained cell nuclei were evaluated.

Cc1ccc(NC(=O)c2ccc(CN3CCN(C)CC3)cc2)cc1Nc1nccc(-c2cccnc2)n1 [IMT, Imatinib]
cell viability [1]: 70.5%
cellular uptake (fluorescence intensity, flow cytometry) [2]: lower fluorescence intensity than cells administered with F16 and F16-IMT
IMT location and distribution inside cells (fluorescence) [3]: low fluorescence when compared to F16 and F16-IMT
